Measurements from paper PMC9369419 (International Journal of Molecular Sciences, 2022).

Tests used:
[1] = molecular target: T1, GluK3 (Rattus norvegicus, UniProt P42264); details: at least; cited from earlier work
T1 construct: made in house; host or cells: Sf9 insect cells (membranes)

[2] = molecular target: T2, GluA2 (Rattus norvegicus, UniProt P19491); test: Radioligand binding at recombinant homomeric GluA2 in Sf9 membranes; details: recombinant rat homomeric receptor, [3H]-(RS)-AMPA, mean ± SEM
T2 construct: made in house; host or cells: Sf9 insect cells (membranes)
T2 sequence (P19491 22-883): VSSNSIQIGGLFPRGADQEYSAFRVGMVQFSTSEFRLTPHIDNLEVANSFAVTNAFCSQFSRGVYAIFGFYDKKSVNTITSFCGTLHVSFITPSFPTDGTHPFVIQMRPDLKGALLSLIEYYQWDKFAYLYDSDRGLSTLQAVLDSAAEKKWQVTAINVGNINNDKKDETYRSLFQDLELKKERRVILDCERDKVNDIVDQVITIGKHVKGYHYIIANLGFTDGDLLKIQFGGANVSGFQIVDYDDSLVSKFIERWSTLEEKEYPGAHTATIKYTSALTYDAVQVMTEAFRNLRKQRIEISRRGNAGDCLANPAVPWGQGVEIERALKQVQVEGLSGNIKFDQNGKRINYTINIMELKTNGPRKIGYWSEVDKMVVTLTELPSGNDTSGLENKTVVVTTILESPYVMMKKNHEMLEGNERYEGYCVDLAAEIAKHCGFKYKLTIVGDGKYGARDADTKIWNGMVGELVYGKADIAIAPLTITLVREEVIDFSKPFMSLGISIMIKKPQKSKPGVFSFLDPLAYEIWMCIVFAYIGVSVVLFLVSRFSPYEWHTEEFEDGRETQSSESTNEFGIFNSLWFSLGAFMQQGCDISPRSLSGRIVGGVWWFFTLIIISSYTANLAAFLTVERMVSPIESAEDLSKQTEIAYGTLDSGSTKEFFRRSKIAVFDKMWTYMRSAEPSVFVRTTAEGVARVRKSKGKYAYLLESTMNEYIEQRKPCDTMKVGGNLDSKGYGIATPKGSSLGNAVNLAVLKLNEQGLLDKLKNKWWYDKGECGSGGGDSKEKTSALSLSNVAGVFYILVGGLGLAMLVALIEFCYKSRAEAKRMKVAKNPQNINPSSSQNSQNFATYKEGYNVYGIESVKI
Description: (§1) Ligand binding affinities at recombinant rat homomeric GluA2, GluK1−3, and GluK5 were determined as previously detailed. […] The filters were dried at 70 °C for 1 h, and 50 μL/well Microscint 20 (PerkinElmer, Waltham, MA, USA) was added. Radioactivity was detected with a TopCounter (PerkinElmer, Waltham, MA, USA). GluA2 and GluK5 assays were filtered on GF/C type filters using Millipore 12-well filtration manifolds (Merck Life Science, Søborg, Denmark) and washed twice with ice-cold assay buffer. Filters were placed in pony vials (PerkinElmer, Waltham, MA, USA), 3 mL of Ultima Gold scintillation fluid (PerkinElmer, Waltham, MA, USA) was added, and DPM (disintegrations per minute) were determined using a TriCarb 2900 scintillation counter (PerkinElmer, Waltham, MA, USA).
(§2) All competition curves (n ≥ 3 per ligand) were determined in triplicate. Data were analyzed using GraphPad Prism 6 (GraphPad Software, San Diego, CA, USA) to determine ligand affinity (Ki) and Hill coefficient (nH) using the one-site Ki and four-parameter logistics equations, respectively.

[3] = molecular target: T3, GluK5 (Rattus norvegicus, UniProt Q63273); test: Radioligand binding at recombinant homomeric GluK5 in Sf9 membranes; details: recombinant rat homomeric receptor, [3H]-kainic acid, mean ± SEM
T3 construct: made in house; host or cells: Sf9 insect cells (membranes)
T3 sequence (Q63273 15-979): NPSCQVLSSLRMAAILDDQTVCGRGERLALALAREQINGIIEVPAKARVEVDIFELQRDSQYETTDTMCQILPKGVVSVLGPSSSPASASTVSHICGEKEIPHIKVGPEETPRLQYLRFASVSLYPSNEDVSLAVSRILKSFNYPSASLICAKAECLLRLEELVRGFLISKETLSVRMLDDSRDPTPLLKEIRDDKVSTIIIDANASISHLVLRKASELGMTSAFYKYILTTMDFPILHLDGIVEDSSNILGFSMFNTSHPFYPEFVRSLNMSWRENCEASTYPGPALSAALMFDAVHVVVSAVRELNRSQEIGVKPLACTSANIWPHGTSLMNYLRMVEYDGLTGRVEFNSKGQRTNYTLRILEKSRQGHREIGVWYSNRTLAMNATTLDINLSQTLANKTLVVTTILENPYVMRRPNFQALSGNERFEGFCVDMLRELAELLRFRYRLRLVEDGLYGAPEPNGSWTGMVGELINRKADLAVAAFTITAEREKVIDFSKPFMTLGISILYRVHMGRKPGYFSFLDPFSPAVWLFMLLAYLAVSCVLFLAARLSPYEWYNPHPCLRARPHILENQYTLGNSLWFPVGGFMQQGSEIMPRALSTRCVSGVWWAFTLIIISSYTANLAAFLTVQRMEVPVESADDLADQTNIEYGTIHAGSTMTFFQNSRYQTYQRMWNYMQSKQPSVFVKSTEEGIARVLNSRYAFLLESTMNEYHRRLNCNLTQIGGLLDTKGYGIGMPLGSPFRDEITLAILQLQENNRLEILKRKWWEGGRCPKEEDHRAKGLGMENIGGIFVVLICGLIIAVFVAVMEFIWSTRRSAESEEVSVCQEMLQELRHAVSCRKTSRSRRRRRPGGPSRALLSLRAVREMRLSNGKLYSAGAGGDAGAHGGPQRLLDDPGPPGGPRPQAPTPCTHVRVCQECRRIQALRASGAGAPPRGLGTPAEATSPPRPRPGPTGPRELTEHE
Description: as §1, §2

[4] = molecular target: T4, GluK2 (Rattus norvegicus, UniProt P42260); test: Radioligand binding at recombinant homomeric GluK2 in Sf9 membranes; details: recombinant rat homomeric receptor, [3H]-kainic acid, mean ± SEM
T4 construct: made in house; host or cells: Sf9 insect cells (membranes)
T4 sequence (P42260 32-908): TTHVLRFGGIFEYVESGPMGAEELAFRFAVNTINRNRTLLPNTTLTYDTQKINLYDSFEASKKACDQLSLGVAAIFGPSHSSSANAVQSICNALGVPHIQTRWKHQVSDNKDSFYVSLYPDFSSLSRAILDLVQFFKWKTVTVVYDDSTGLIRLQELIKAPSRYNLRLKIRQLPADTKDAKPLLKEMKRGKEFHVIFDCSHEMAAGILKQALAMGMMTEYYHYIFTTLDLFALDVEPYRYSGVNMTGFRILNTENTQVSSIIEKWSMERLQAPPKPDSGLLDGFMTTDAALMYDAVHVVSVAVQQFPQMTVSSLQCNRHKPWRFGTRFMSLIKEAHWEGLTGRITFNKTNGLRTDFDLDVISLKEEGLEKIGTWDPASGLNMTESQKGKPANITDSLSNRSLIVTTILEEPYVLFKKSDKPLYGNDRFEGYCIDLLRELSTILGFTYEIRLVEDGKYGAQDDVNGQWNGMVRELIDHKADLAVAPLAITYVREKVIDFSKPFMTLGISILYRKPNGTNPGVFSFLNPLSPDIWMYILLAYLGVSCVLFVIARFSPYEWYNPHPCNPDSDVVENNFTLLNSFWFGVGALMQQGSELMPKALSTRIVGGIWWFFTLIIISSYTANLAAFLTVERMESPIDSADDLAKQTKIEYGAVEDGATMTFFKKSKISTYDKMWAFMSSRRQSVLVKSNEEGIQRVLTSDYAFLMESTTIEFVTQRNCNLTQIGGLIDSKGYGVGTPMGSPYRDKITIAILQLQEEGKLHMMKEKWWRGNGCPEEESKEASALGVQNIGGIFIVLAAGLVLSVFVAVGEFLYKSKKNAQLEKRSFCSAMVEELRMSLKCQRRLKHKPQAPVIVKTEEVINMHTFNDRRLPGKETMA
Description: as §1, §2

[5] = molecular target: T5, GluK1 (Rattus norvegicus, UniProt P22756); test: Radioligand binding at recombinant homomeric GluK1 in Sf9 membranes; details: recombinant rat homomeric receptor, [3H]-(S)-NF608, mean ± SEM
T5 construct: made in house; host or cells: Sf9 insect cells (membranes)
T5 sequence (P22756 31-949): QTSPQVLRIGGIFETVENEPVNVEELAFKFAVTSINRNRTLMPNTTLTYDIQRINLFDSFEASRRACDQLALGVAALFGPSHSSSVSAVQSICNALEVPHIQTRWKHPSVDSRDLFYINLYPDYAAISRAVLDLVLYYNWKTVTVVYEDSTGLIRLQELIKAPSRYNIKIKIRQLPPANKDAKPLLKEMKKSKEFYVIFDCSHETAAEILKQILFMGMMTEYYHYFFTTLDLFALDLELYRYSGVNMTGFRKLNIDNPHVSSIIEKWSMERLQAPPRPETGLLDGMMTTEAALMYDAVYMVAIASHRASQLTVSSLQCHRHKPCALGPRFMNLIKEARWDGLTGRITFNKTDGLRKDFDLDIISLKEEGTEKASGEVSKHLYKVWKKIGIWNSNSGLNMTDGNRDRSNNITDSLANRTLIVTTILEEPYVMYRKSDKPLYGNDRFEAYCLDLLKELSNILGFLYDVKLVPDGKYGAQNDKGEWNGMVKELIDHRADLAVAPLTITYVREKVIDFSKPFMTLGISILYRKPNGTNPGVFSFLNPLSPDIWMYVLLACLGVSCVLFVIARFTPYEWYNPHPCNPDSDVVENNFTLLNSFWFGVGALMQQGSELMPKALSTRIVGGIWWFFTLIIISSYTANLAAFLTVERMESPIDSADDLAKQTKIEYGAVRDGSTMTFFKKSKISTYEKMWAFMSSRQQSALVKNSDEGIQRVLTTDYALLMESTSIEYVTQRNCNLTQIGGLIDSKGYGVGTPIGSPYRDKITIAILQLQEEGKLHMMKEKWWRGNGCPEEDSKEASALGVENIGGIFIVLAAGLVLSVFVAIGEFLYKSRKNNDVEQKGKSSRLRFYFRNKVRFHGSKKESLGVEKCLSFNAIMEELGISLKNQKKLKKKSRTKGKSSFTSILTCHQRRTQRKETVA
Description: as §1, §2

[6] = molecular target: T1, GluK3; test: Radioligand binding at recombinant homomeric GluK3 in Sf9 membranes; details: recombinant rat homomeric receptor, [3H]-kainic acid, mean ± SEM
Description: as §1, §2

[7] = molecular target: T6, GluK3a (Rattus norvegicus, UniProt P42264); test: Intracellular Ca2+ imaging assay, HEK293 cells expressing GluK3a; format: cell-based; details: 100 µM KA + 300 µM BPAM344, Ca2+ fluorescence, read-out: IC50, antagonism of agonist-evoked responses at GluK3
T6 construct: expressed in transfected cells
T6 sequence (P42264 32-919): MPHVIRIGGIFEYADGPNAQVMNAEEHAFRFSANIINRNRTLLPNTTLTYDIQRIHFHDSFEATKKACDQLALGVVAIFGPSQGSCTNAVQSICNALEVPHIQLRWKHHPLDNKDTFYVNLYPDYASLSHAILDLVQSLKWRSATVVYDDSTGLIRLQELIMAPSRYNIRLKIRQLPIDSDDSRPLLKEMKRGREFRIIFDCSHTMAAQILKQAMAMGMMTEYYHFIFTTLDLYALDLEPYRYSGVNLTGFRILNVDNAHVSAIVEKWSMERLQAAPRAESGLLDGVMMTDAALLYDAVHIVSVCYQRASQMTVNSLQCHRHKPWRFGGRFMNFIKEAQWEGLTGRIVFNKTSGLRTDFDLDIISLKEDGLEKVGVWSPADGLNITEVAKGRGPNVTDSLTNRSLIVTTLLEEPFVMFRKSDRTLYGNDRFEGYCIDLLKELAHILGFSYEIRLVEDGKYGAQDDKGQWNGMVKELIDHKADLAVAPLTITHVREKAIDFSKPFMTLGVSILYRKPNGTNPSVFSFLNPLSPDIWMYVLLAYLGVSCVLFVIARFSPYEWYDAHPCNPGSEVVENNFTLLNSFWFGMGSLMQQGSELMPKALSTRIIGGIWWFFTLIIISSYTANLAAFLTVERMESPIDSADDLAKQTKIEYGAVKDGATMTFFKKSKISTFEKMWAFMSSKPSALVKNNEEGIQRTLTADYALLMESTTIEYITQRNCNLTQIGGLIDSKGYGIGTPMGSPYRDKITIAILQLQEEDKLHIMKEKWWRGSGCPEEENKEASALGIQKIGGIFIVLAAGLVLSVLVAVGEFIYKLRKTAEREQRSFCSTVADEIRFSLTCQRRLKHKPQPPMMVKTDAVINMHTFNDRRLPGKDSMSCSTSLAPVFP
Text: For the determination of antagonistic activity of compounds at GluK1, GluK3 and GluA2 receptors, stable HEK293 cell lines expressing rat GluK1b(Q), GluK3a, and GluA2(Q)i were created. A polyclonal stable cell line expressing GluK3a was created as described previously. For the creation of polyclonal stable cell lines expressing GluK1and GluA2 receptors, cDNA encoding blasticidin-S deaminase (blas) enzymes were inserted into the pIRES plasmid vector (Clontech, Mountain View, CA, USA) to create the plasmid vector pRES(blas). Subsequently, cDNA for rat GluK1(Q)1b and the flip isoform of rat GluA2(Q)i were inserted into pRES(blas) to create the expression constructs GluK1b(Q)pIRES(blas) and GluA2i(Q)pIRES(blas), respectively. These were used to transfect GripTite^TM HEK293 cells followed by selecting with 20 µg/mL blasticidin (Invivogen, Toulouse, France) and 0.50 mg/mL geneticin in the presence of 20 µM of the AMPA receptor antagonist CNQX (Tocris, Bristol, UK) until stably transfected GluK1b(Q) and GluA2(Q)i cell lines were obtained. For functional assays, cells were plated into clear-bottomed, black 96-well fluorescence culture plates (Corning, Vordingborg, Denmark), and when >70% confluent, the cells were loaded with 2 μM Fluo 4-AM calcium sensitive dye (Abcam, Cambridge, UK) and used for the imaging of agonist-evoked changes in intracellular Ca^2+ using a FlexStation I plate reader (Molecular Devices, San Jose, CA, USA). […] Changes in dye fluorescence in response to the addition of an agonist solution were then measured at 538 nm using excitation at 485 nm and emission cut-off at 515 nm. Baseline fluorescence was measured for 16 s before the addition of 50 µL agonist solution to each well of the assay plate, and fluorescence was measured for 120 to 160 s after addition of the agonists. Peak change in fluorescence was calculated as the difference between the maximal observed increase in fluorescence and pre-agonist baseline fluorescence. The agonist solutions contained 100 µM KA together with 300 µM of the KAR positive allosteric modulator BPAM344 (Sigma-Aldrich Chemical, St. Louis, MO, USA) for GluK1 and GluK3 experiments or 100 µM glutamate together with 100 µM of the AMPAR positive allosteric modulator cyclothiazide for GluA2 experiments (HelloBio, Bristol, UK). Responses were determined in at least triplicate at each compound concentration.

T1 sequence (P42264 32-919): as above

SMILES | binding preference at GluK3 over the GluK1, GluK2 and GluK5 subtypes [1] | Ki [2] [µM] | Ki [3] [µM] | Ki [4] [µM] | Ki [5] [µM] | Ki [6] [µM] | melting point [°C] | IC50 [7] [µM]
N[C@@H](Cc1c[nH]c(S)n1)C(=O)O [(S)-2-mercaptohistidine] | 15–100 fold | – | – | – | – | – | – | –
Cc1cccc(C#Cc2ccc3c(c2)[nH]c(=O)c(=O)n3NC(=O)c2ccccc2)c1 [Compound 5] | – | > 100 | > 100 | ~100 | ~100 | 1.4 ± 0.4 | 318 to 320 | –
Cc1ccc(C#Cc2ccc3c(c2)[nH]c(=O)c(=O)n3NC(=O)c2ccccc2)cc1 [Compound 6] | – | – | – | – | ≥ 100 | 6.1 ± 0.8 | 325 to 327 | –
CCc1ccc(C#Cc2ccc3c(c2)[nH]c(=O)c(=O)n3NC(=O)c2ccccc2)cc1 [Compound 7] | – | > 100 | > 100 | > 100 | > 100 | 20 ± 1 | 308 to 310 | –
CCCc1ccc(C#Cc2ccc3c(c2)[nH]c(=O)c(=O)n3NC(=O)c2ccccc2)cc1 [Compound 8] | – | > 100 | > 100 | > 100 | > 100 | 50 ± 12 | 305 to 306 | –
CC(C)c1ccc(C#Cc2ccc3c(c2)[nH]c(=O)c(=O)n3NC(=O)c2ccccc2)cc1 [Compound 9] | – | > 100 | > 100 | > 100 | > 100 | 38 ± 10 | 263 to 264 | –
O=C(Nn1c(=O)c(=O)[nH]c2cc(C#Cc3ccc(Cl)cc3)ccc21)c1ccccc1 [Compound 10] | – | > 100 | > 100 | > 100 | > 100 | 3.5 ± 0.7 | 326 to 327 | –
O=C(Nn1c(=O)c(=O)[nH]c2cc(C#Cc3ccc(C(F)(F)F)cc3)ccc21)c1ccccc1 [Compound 11] | – | > 100 | > 100 | > 100 | ~100 | > 100 | – | –
COc1ccc(C#Cc2ccc3c(c2)[nH]c(=O)c(=O)n3NC(=O)c2ccccc2)cc1 [Compound 12] | – | > 100 | > 100 | > 100 | > 100 | 8.3 ± 0.4 | 304 to 305 | –
O=C(Nn1c(=O)c(=O)[nH]c2cc(C#Cc3ccc(Oc4ccccc4)cc3)ccc21)c1ccccc1 [Compound 13] | – | – | – | – | ≥ 100 | 7.9 ± 0.7 | 262 to 263 | –
O=C(O)c1cccc(C#Cc2ccc3c(c2)[nH]c(=O)c(=O)n3NC(=O)c2ccccc2)c1 [Compound 14] | – | > 100 | > 100 | > 100 | > 100 | 28 ± 2 | 310 to 312 | –
O=C(O)c1ccc(C#Cc2ccc3c(c2)[nH]c(=O)c(=O)n3NC(=O)c2ccccc2)cc1 [Compound 15] | – | > 100 | > 100 | > 100 | > 100 | 31 ± 4 | 348 to 349 | –
NS(=O)(=O)c1ccc(C#Cc2ccc3c(c2)[nH]c(=O)c(=O)n3NC(=O)c2ccccc2)cc1 [Compound 16] | – | > 100 | > 100 | > 100 | > 100 | ~100 | 303 to 305 | –
O=C(Nn1c(=O)c(=O)[nH]c2cc(-c3cc4ccccc4o3)ccc21)c1ccccc1 [Compound 18] | – | – | – | – | > 100 | 14 ± 2 | – | –
O=C(Nn1c(=O)c(=O)[nH]c2cc(C#Cc3cccc(O)c3)ccc21)c1ccccc1 [Compound 19] | – | ~100 | > 100 | > 100 | > 100 | 3.2 ± 0.6 | 313 to 314 | –
O=C(Nn1c(=O)c(=O)[nH]c2cc(C#Cc3ccc(CO)cc3)ccc21)c1ccccc1 [Compound 20] | – | > 100 | > 100 | > 100 | ~100 | 5.8 ± 1.5 | 298 to 300 | –
Nc1ccccc1C#Cc1ccc2c(c1)[nH]c(=O)c(=O)n2NC(=O)c1ccccc1 [Compound 21] | – | – | – | – | 14 ± 2 | 1 ± 0.1 | 303 to 305 | –
Nc1cccc(C#Cc2ccc3c(c2)[nH]c(=O)c(=O)n3NC(=O)c2ccccc2)c1 [Compound 22] | – | – | – | – | > 100 | ~100 | 274 to 275 | –
Nc1ccc(C#Cc2ccc3c(c2)[nH]c(=O)c(=O)n3NC(=O)c2ccccc2)cc1 [Compound 23] | – | > 100 | > 100 | > 100 | > 100 | 1.4 ± 0.2 | 312 to 314 | –
CN(C)c1ccc(C#Cc2ccc3c(c2)[nH]c(=O)c(=O)n3NC(=O)c2ccccc2)cc1 [Compound 24] | – | – | – | – | 39 ± 4 | 24 ± 4 | 273 to 275 | –
O=C(Nn1c(=O)c(=O)[nH]c2cc(C#Cc3ccncc3)ccc21)c1ccccc1 [Compound 25] | – | > 100 | > 100 | > 100 | > 100 | 25 ± 6 | 239 to 241 | –
O=C(Nn1c(=O)c(=O)[nH]c2cc(C#Cc3cncnc3)ccc21)c1ccccc1 [Compound 27] | – | > 100 | > 100 | 12 ± 2 | 11 ± 2 | 0.28 ± 0.02 | 318 to 320 | 0.6
O=C(Nn1c(=O)c(=O)[nH]c2cc(C#Cc3ccc4[nH]ncc4n3)ccc21)c1ccccc1 [Compound 29] | – | 0.23 ± 0.02 | 3.8 ± 0.1 | 0.091 ± 0.015 | 0.15 ± 0.05 | 0.13 ± 0.03 | – | 2.2
NS(=O)(=O)c1cccc2c1c([N+](=O)[O-])cc1nc(O)c(O)nc12 [NBQX, reference compound] | – | – | 152 ± 23 | 5.4 ± 1.2 | – | – | – | –
